Measured values: ChEMBL document CHEMBL1201862, “PubChem BioAssay data set” (2004)
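48-hour exposure; five concentrations; linearly interpolated endpoints. At the GI50, growth is halved.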 Active and inactive are the calls of the source. Rule as the data show it: active = GI50 up to about 1.1 µM and inactive = higher.

Legend:
Assay in all cases: DTP human tumour cell line panel, 48 h
SF-295 = test system: SF-295
NCI/ADR-RES = test system: NCI/ADR-RES
UACC-62 = test system: UACC-62
U-251 = test system: U-251
A549 = test system: A549
Hs-578T = test system: Hs-578T
MCF7 = test system: MCF7
OVCAR-3 = test system: OVCAR-3
NCI-H23 = test system: NCI-H23
T47D = test system: T47D
HL-60 = test system: HL-60
NCI-H226 = test system: NCI-H226
IGROV-1 = test system: IGROV-1
SK-MEL-28 = test system: SK-MEL-28
HOP-62 = test system: HOP-62
HCT-15 = test system: HCT-15
HT-29 = test system: HT-29
SF-539 = test system: SF-539
SK-MEL-2 = test system: SK-MEL-2
SNB-75 = test system: SNB-75

Compound	GI50 (SF-295)	GI50 (NCI/ADR-RES)	GI50 (UACC-62)	GI50 (U-251)	GI50 (A549)	GI50 (Hs-578T)	GI50 (MCF7)	GI50 (OVCAR-3)	GI50 (NCI-H23)	GI50 (T47D)	GI50 (HL-60)	GI50 (NCI-H226)	GI50 (IGROV-1)	GI50 (SK-MEL-28)	GI50 (HOP-62)	GI50 (HCT-15)	GI50 (HT-29)	GI50 (SF-539)	GI50 (SK-MEL-2)	GI50 (SNB-75)
S=C(Nc1ccc2c(c1)Cc1ccccc1-2)Nc1ccc2c(c1)Cc1ccccc1-2	> 100 µM (inactive)	> 100 µM (inactive)	> 100 µM (inactive)	> 100 µM (inactive)	> 100 µM (inactive)	> 100 µM (inactive)	> 100 µM (inactive)	> 100 µM (inactive)	> 100 µM (inactive)	> 100 µM (inactive)	7.08 µM (inactive)	> 100 µM (inactive)	> 100 µM (inactive)	> 100 µM (inactive)	> 100 µM (inactive)	> 100 µM	> 100 µM (inactive)			
O=C(O)C(Cc1ccccc1-c1ccccc1)C(=O)O	86.7 µM (inactive)	> 100 µM (inactive)	> 100 µM (inactive)	> 100 µM (inactive)	> 100 µM (inactive)	> 100 µM (inactive)	> 100 µM (inactive)	97.1 µM (inactive)	> 100 µM (inactive)	> 100 µM (inactive)		> 100 µM (inactive)	> 100 µM (inactive)	> 100 µM (inactive)		> 100 µM	> 100 µM (inactive)	> 100 µM (inactive)	> 100 µM (inactive)	> 100 µM (inactive)
C(#C[C@@]12CCC[C@@H]1N(Cc1ccccc1)CO2)c1ccc2c(c1)OCO2	> 100 µM (inactive)	> 100 µM (inactive)	> 100 µM (inactive)	> 100 µM (inactive)	> 100 µM (inactive)	65 µM (inactive)	> 100 µM (inactive)	> 100 µM (inactive)	> 100 µM (inactive)	> 100 µM (inactive)		> 100 µM (inactive)		> 100 µM (inactive)	> 100 µM (inactive)	> 100 µM	> 100 µM (inactive)	> 100 µM (inactive)	> 100 µM (inactive)	> 100 µM (inactive)
COC1(C(C)(C)C)C=C(C(C)(C)C)P(=O)(O)O1 (configuration not stated)	> 100 µM (inactive)	> 100 µM (inactive)	> 100 µM (inactive)	> 100 µM (inactive)	> 100 µM (inactive)	> 100 µM (inactive)	> 100 µM (inactive)	> 100 µM (inactive)	> 100 µM (inactive)	1.36 µM (inactive)	> 100 µM (inactive)		> 100 µM (inactive)	> 100 µM (inactive)	> 100 µM (inactive)	> 100 µM	> 100 µM (inactive)	> 100 µM (inactive)	> 100 µM (inactive)	> 100 µM (inactive)
COC(=O)/C(=C\c1ccco1)P(=O)(OC)OC	20 µM (inactive)	24.5 µM (inactive)	47.6 µM (inactive)	41 µM (inactive)	85.1 µM (inactive)	54.1 µM (inactive)	17.4 µM (inactive)	26.9 µM (inactive)	30.5 µM (inactive)	> 100 µM (inactive)		58.3 µM (inactive)	> 100 µM (inactive)	52.8 µM (inactive)	25.4 µM (inactive)	75.5 µM	25.9 µM (inactive)	32.5 µM (inactive)	30.9 µM (inactive)	35.2 µM (inactive)
COc1ccc2c3c([nH]c2c1)CCN(Cc1ccccc1)C3	11.5 µM (inactive)	31.5 µM (inactive)	31.8 µM (inactive)	22.5 µM (inactive)	62.1 µM (inactive)	24.6 µM (inactive)	17.5 µM (inactive)		42.3 µM (inactive)	19.4 µM (inactive)	17.5 µM (inactive)	22.3 µM (inactive)	73.6 µM (inactive)	18.8 µM (inactive)	21.8 µM (inactive)	17.9 µM	27.2 µM (inactive)	16.1 µM (inactive)		37.3 µM (inactive)
O=c1nc(N2CCN(c3ccccc3)CC2)ccn1C1OC(CO)C(O)C1O (configuration not stated)	61.5 µM (inactive)	> 100 µM (inactive)	59.7 µM (inactive)	52.2 µM (inactive)	> 100 µM (inactive)	> 100 µM (inactive)	54.6 µM (inactive)	56.4 µM (inactive)	55.3 µM (inactive)	22.5 µM (inactive)	39.9 µM (inactive)	> 100 µM (inactive)	60.5 µM (inactive)	> 100 µM (inactive)	> 100 µM (inactive)	> 100 µM	49.2 µM (inactive)	> 100 µM (inactive)	> 100 µM (inactive)	
O=C(Cc1ccc(Cl)c(Cl)c1)NCC1(N2CCCCC2)CCCCC1	37.3 µM (inactive)	93.5 µM (inactive)	20.2 µM (inactive)	69.3 µM (inactive)	41.4 µM (inactive)	52.2 µM (inactive)	43.6 µM (inactive)	86.5 µM (inactive)	57.7 µM (inactive)	21.1 µM (inactive)	41.4 µM (inactive)		> 100 µM (inactive)		> 100 µM (inactive)	38.7 µM	26.1 µM (inactive)		46.1 µM (inactive)	
Cc1ccc(S(=O)(=O)CNC(=O)C(O)(O)C(F)(F)F)cc1	> 100 µM (inactive)	> 100 µM (inactive)	> 100 µM (inactive)	> 100 µM (inactive)	> 100 µM (inactive)	> 100 µM (inactive)	> 100 µM (inactive)	> 100 µM (inactive)	> 100 µM (inactive)	> 100 µM (inactive)	> 100 µM (inactive)		> 100 µM (inactive)	> 100 µM (inactive)	> 100 µM (inactive)	> 100 µM	> 100 µM (inactive)	> 100 µM (inactive)	> 100 µM (inactive)	
NCCCCCCn1c(-c2ccc(Br)cc2)cs/c1=N\c1ccccc1	16 µM (inactive)	12.2 µM (inactive)	17.4 µM (inactive)	7.89 µM (inactive)	12.5 µM (inactive)	13.1 µM (inactive)	5.21 µM (inactive)	10.9 µM (inactive)	14.7 µM (inactive)	5.08 µM (inactive)		16.9 µM (inactive)		12.7 µM (inactive)	16.8 µM (inactive)	7.74 µM	5.9 µM (inactive)	13.1 µM (inactive)	18.6 µM (inactive)	11.9 µM (inactive)
COc1ccc(C(O)c2ccccn2)cc1 (configuration not stated)	> 100 µM (inactive)	> 100 µM (inactive)	> 100 µM (inactive)	> 100 µM (inactive)	> 100 µM (inactive)	> 100 µM (inactive)	> 100 µM (inactive)	> 100 µM (inactive)	> 100 µM (inactive)	> 100 µM (inactive)		> 100 µM (inactive)	> 100 µM (inactive)	> 100 µM (inactive)	> 100 µM (inactive)	> 100 µM	> 100 µM (inactive)	> 100 µM (inactive)	> 100 µM (inactive)	> 100 µM (inactive)
N#CC1(C#N)C2CCCCC23OC(=N)C1(C#N)C(c1ccccc1)O3 (configuration not stated)	69 µM (inactive)	41.5 µM (inactive)	17.9 µM (inactive)	17.6 µM (inactive)	> 100 µM (inactive)	0.302 µM (active)	16.6 µM (inactive)	13.6 µM (inactive)	30.5 µM (inactive)	17.5 µM (inactive)		> 100 µM (inactive)	19 µM (inactive)	> 10 µM (inactive)		12.4 µM	18.2 µM (inactive)	17.1 µM (inactive)	20.2 µM (inactive)	0.213 µM (active)
CN(C)CCNC(=O)c1nc([N+](=O)[O-])cn1C	> 100 µM (inactive)	> 100 µM (inactive)	> 100 µM (inactive)	> 100 µM (inactive)	> 100 µM (inactive)	> 100 µM (inactive)	> 100 µM (inactive)	> 100 µM (inactive)	> 100 µM (inactive)	> 100 µM (inactive)	> 100 µM (inactive)		> 100 µM (inactive)	> 100 µM (inactive)	> 100 µM (inactive)	> 100 µM	> 100 µM (inactive)	> 100 µM (inactive)	> 100 µM (inactive)	> 100 µM (inactive)
CCOC(=O)N/N=C(/N)c1cccc([N+](=O)[O-])c1	> 100 µM (inactive)	> 100 µM (inactive)	> 100 µM (inactive)	> 100 µM (inactive)	> 100 µM (inactive)	> 100 µM (inactive)	> 100 µM (inactive)	> 100 µM (inactive)	> 100 µM (inactive)	> 100 µM (inactive)	> 100 µM (inactive)		> 100 µM (inactive)	> 100 µM (inactive)	> 100 µM (inactive)	> 100 µM	> 100 µM (inactive)	> 100 µM (inactive)	> 100 µM (inactive)	80.2 µM (inactive)
C[C@@H](NC(C#N)c1ccco1)c1ccccc1 (some centres not stated)	> 100 µM (inactive)	> 100 µM (inactive)	> 100 µM (inactive)	> 100 µM (inactive)	> 100 µM (inactive)	> 100 µM (inactive)	> 100 µM (inactive)	> 100 µM (inactive)	> 100 µM (inactive)	> 100 µM (inactive)	> 100 µM (inactive)	> 100 µM (inactive)	> 100 µM (inactive)	> 100 µM (inactive)	> 100 µM (inactive)	> 100 µM	> 100 µM (inactive)	> 100 µM (inactive)		> 100 µM (inactive)
Cc1ccc(-n2nnc(C(N)=O)c2O)cc1	> 100 µM (inactive)	> 100 µM (inactive)	> 100 µM (inactive)	> 100 µM (inactive)	> 100 µM (inactive)	> 100 µM (inactive)	> 100 µM (inactive)	> 100 µM (inactive)	> 100 µM (inactive)	> 100 µM (inactive)	> 100 µM (inactive)	> 100 µM (inactive)	> 100 µM (inactive)	> 100 µM (inactive)	> 100 µM (inactive)	> 100 µM	> 100 µM (inactive)			> 100 µM (inactive)
